The conditions of data set [1]: cited from earlier work.
The nature of data set [2]: Pharmacokinetic test in the body of beagle (blood concentration of Entecavir after i.m. injection of prodrug suspension). Format: in vivo. As for the experimental part: Three conventional male beagles were used in the test, and they were forbidden to eat for 12 hours before administering drugs, and drank water freely meanwhile. Entecavir-5′-docosanoate (prepared in Example 4), Entecavir-5′-ursodesoxycholate (prepared in Example 5) and entecavir-5′-stearoylamidobutanoate (prepared in Example 19) were used to prepare a suspension, and were intramuscularly injected in a dosage of 0.508 mg/kg, 0.552 mg/kg, and 0.533 mg/kg respectively.
Treatment of blood plasma sample: 100 μL of blood plasma sample was added to 20 μL of methanol-water (V:V, 1:1) and 20 μL of interior label (2 μg/mL apigenin), and mixed through vortex. 200 μL of methanol was added and mixed through vortex, followed by being centrifuged under a centrifugal force of 14,000 g for 30 minutes. 10 μL of supernate was collected for analysis. The results are shown in Table 1, Table 2, and Table 3, as well as FIG. 1, FIG. 2 and FIG. 3.

Consider `C=C1[C@H](CO)[C@@H](O)C[C@@H]1n1cnc2c(=O)[nH]c(N)nc21` [Entecavir], for which, in data set [1], the “Cmax decrease when administered with food” value is listed as 44-46% and the “Decrease of area under the curve (AUC) of the drug-time curve when administered with food” value was 18-20%.

With `C=C1[C@H](COC(=O)CCCNC(=O)CCCCCCCCCCCCCCCCC)[C@@H](O)C[C@@H]1n1cnc2c(=O)[nH]c(N)nc21` [Entecavir-5′-stearoylamidobutanoate], the “Release of injectable suspension after intramuscular injection” value (“Release of injectable suspension” below) in data set [2] (dog, in vivo) was “released sustainably and steady”.

Take Entecavir-5′-docosanoate: the “Release of injectable suspension” value in data set [2] (dog, in vivo) is “released sustainably and steady”.

In the case of `C=C1[C@H](COC(=O)CC[C@@H](C)[C@H]2CC[C@H]3[C@@H]4[C@@H](O)C[C@@H]5C[C@H](O)CC[C@]5(C)[C@H]4CC[C@]23C)[C@@H](O)C[C@@H]1n1cnc2c(=O)[nH]c(N)nc21` [Entecavir-5′-ursodesoxycholate], in data set [2] (beagle, intramuscularly injected suspension), the “Release of injectable suspension” value was “released sustainably and steady”.

Source of the values: patent US11292811B2, “Long-acting prodrugs of entecavir, preparing methods and uses thereof” (priority 2017, dated 2022).
